These results are taken from patent publication US20100041642A1, “UREA INHIBITORS OF MAP KINASES” (LOCUS PHARMACEUTICALS, INC., priority 2008, published 2010).

The term IC50 denotes the concentration at which inhibition is half-maximal.

The experiment deals with p38 (Homo sapiens, UniProt Q16539). Kind of experiment: Protein Kinase Assay (33P incorporation from γ-[33P]ATP into GST-ATF-2). It counts as biochemical. As to conditions: 2 nM p38, preincubated 20 min at 30° C.; 10 uM cold ATP, 2 uM GST-ATF2, 70 min; read-out: ACT. (Activity), IC50 category in Protein Kinase Assay. In short, it runs like this:
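Compounds preincubated 20 min at 30 °C with 2 nM p38; reaction started with 2 uM GST-ATF-2 (aa 19-96) and 10 uM ATP plus γ-[33P]ATP, pH 7.5, 70 min at 30 °C, 2% DMSO. Phosphoric acid stop; 33P-labelled substrate captured on phosphocellulose and counted by scintillation.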

A value given as a limit tells only on which side of the number the result lay.

Sequence of p38 (Q16539 whole entry, the tested form may be a part): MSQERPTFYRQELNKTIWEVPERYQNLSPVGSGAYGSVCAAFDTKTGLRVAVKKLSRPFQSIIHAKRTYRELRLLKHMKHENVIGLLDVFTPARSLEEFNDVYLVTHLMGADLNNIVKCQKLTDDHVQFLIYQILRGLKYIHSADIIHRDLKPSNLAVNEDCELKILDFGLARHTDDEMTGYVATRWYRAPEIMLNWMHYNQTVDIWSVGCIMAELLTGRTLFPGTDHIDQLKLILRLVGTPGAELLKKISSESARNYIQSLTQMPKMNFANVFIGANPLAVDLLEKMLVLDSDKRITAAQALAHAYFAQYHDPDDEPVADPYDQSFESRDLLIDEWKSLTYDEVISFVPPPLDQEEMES

Take `Cc1ccc(NC(=O)Nc2sc(C(C)(C)C)cc2C(=O)N2CCNC(=O)C2(C)C)cc1-c1ccc(OCCCN2CCN(C)CC2)nc1` [1-(5-tert-butyl-3-(2,2-dimethyl-3-oxopiperazine-1-carbonyl)thiophen-2-yl)-3-(4-methyl-3-(6-(3-(4-methylpiperazin-1-yl)propoxy)pyridin-3-yl)phenyl)urea]: the IC50 is below 0.1 µM.
For `Cc1ccc(NC(=O)Nc2sc(C(C)(C)C)cc2C(=O)N2CCNC(=O)C2(C)C)cc1-c1ccc(OCCCc2ccccn2)nc1` [1-(5-tert-butyl-3-(2,2-dimethyl-3-oxopiperazine-1-carbonyl)thiophen-2-yl)-3-(4-methyl-3-(6-(3-(pyridin-2-yl)propoxy)pyridin-3-yl)phenyl)urea] the value was below 0.1 µM; for `Cc1ccc(NC(=O)Nc2sc(C(C)(C)C)cc2C(=O)N2CCNC(=O)C2(C)C)cc1-c1ccc(OCCCN2CCOCC2)nc1` [1-(5-tert-butyl-3-(2,2-dimethyl-3-oxopiperazine-1-carbonyl)thiophen-2-yl)-3-(4-methyl-3-(6-(3-morpholinopropoxy)pyridin-3-yl)phenyl)urea], below 0.1 µM.
The same measure for `Cc1ccc(NC(=O)Nc2sc(C(C)(C)C)cc2C(=O)N2CCNC(=O)C2(C)C)cc1-c1ccc(N2CCN(C)CC2)nc1` [1-(5-tert-butyl-3-(2,2-dimethyl-3-oxopiperazine-1-carbonyl)thiophen-2-yl)-3-(4-methyl-3-(6-(4-methylpiperazin-1-yl)pyridin-3-yl)phenyl)urea]: below 0.1 µM; for `Cc1ccc(NC(=O)Nc2sc(C(C)(C)C)cc2C(=O)N2CCNC(=O)C2(C)C)cc1-c1ccc(CN2CCOCC2)nc1` [1-(5-tert-butyl-3-(2,2-dimethyl-3-oxopiperazine-1-carbonyl)thiophen-2-yl)-3-(4-methyl-3-(6-(morpholinomethyl)pyridin-3-yl)phenyl)urea]: below 0.1 µM.
The same measure for `Cc1ccc(NC(=O)Nc2sc(C(C)(C)C)cc2C(=O)N2CCNC(=O)C2(C)C)cc1-c1ccc(N2CCCCC2)nc1` [1-(5-tert-butyl-3-(2,2-dimethyl-3-oxopiperazine-1-carbonyl)thiophen-2-yl)-3-(4-methyl-3-(6-(piperidin-1-yl)pyridin-3-yl)phenyl)urea]: below 0.1 µM; for `Cc1ccc(NC(=O)Nc2sc(C(C)(C)C)cc2C(=O)N2CCNC(=O)C2(C)C)cc1-c1ccc(OC2CCOCC2)nc1` [1-(5-tert-butyl-3-(2,2-dimethyl-3-oxopiperazine-1-carbonyl)thiophen-2-yl)-3-(4-methyl-3-(6-(tetrahydro-2H-pyran-4-yloxy)pyridin-3-yl)phenyl)urea]: below 0.1 µM.
For `Cc1ccc(-c2cc(NC(=O)Nc3sc(C(C)(C)C)cc3C(=O)N3CCNC(=O)C3(C)C)ccc2C)nn1` [1-(5-tert-butyl-3-(2,2-dimethyl-3-oxopiperazine-1-carbonyl)thiophen-2-yl)-3-(4-methyl-3-(6-methylpyridazin-3-yl)phenyl)urea], the IC50 was below 0.1 µM.
The same measure for `Cc1ccc(NC(=O)Nc2sc(C(C)(C)C)cc2C(=O)N2CCNC(=O)C2(C)C)cc1-c1ccc(N2CCOCC2)nc1` [1-(5-tert-butyl-3-(2,2-dimethyl-3-oxopiperazine-1-carbonyl)thiophen-2-yl)-3-(4-methyl-3-(6-morpholinopyridin-3-yl)phenyl)urea]: below 0.1 µM; for `Cc1ccc(NC(=O)Nc2sc(C(C)(C)C)cc2C(=O)N2CCNC(=O)C2(C)C)cc1-c1ccccn1` [1-(5-tert-butyl-3-(2,2-dimethyl-3-oxopiperazine-1-carbonyl)thiophen-2-yl)-3-(4-methyl-3-(pyridin-2-yl)phenyl)urea]: below 0.1 µM; for `Cc1ccc(NC(=O)Nc2sc(C(C)(C)C)cc2C(=O)N2CCNC(=O)C2(C)C)cc1C#Cc1ccccn1` [1-(5-tert-butyl-3-(2,2-dimethyl-3-oxopiperazine-1-carbonyl)thiophen-2-yl)-3-(4-methyl-3-(pyridin-2-ylethynyl)phenyl)urea]: below 0.1 µM.
In the case of `Cc1ccc(NC(=O)Nc2sc(C(C)(C)C)cc2C(=O)N2CCNC(=O)C2(C)C)cc1-c1cccnc1` [1-(5-tert-butyl-3-(2,2-dimethyl-3-oxopiperazine-1-carbonyl)thiophen-2-yl)-3-(4-methyl-3-(pyridin-3-yl)phenyl)urea], the IC50 was below 0.1 µM.
Turning to `Cc1ccc(NC(=O)Nc2sc(C(C)(C)C)cc2C(=O)N2CCNC(=O)C2(C)C)cc1-c1ccncc1` [1-(5-tert-butyl-3-(2,2-dimethyl-3-oxopiperazine-1-carbonyl)thiophen-2-yl)-3-(4-methyl-3-(pyridin-4-yl)phenyl)urea], the IC50 is below 0.1 µM.
Regarding `Cc1ccc(NC(=O)Nc2sc(C(C)(C)C)cc2C(=O)N2CCNC(=O)C2(C)C)cc1-c1ncccn1` [1-(5-tert-butyl-3-(2,2-dimethyl-3-oxopiperazine-1-carbonyl)thiophen-2-yl)-3-(4-methyl-3-(pyrimidin-2-yl)phenyl)urea], the IC50 is below 0.1 µM.
For `COc1ccc(-c2ccc(C)c(NC(=O)Nc3sc(C(C)(C)C)cc3C(=O)N3CCNC(=O)C3(C)C)c2)cn1` [1-(5-tert-butyl-3-(2,2-dimethyl-3-oxopiperazine-1-carbonyl)thiophen-2-yl)-3-(5-(6-methoxypyridin-3-yl)-2-methylphenyl)urea] the value was below 0.1 µM; for `Cc1nnc(CN2CCN(C(=O)c3cc(C(C)(C)C)sc3NC(=O)Nc3ccc(C)c(-c4ccncc4)c3)C(C)(C)C2=O)o1` [1-(5-tert-butyl-3-(3,3-dimethyl-1-((5-methyl-1,3,4-oxadiazol-2-yl)methyl)-2-oxopiperazine-4-carbonyl)thiophen-2-yl)-3-(4-methyl-3-(pyridin-4-yl)phenyl)urea], below 0.1 µM.
For `Cc1ccc(NC(=O)Nc2sc(C(C)(C)C)cc2C(=O)N2CCN(C(=O)CN(C)C)CC2)cc1-c1cccnc1` [1-(5-tert-butyl-3-(4-(2-(dimethylamino)ethanoyl)piperazine-1-carbonyl)thiophen-2-yl)-3-(4-methyl-3-(pyridin-3-yl)phenyl)urea] the value was below 1 µM.
The same measure for `CCc1ccc(-c2cc(NC(=O)Nc3sc(C(C)(C)C)cc3C(=O)N3CCN(CCN(C)C)C(=O)C3(C)C)ccc2C)cn1` [1-(5-tert-butyl-3-(4-(2-(dimethylamino)ethyl)-2,2-dimethyl-3-oxopiperazine-1-carbonyl)thiophen-2-yl)-3-(3-(6-ethylpyridin-3-yl)-4-methylphenyl)urea]: below 1 µM; for `Cc1ccc(NC(=O)Nc2sc(C(C)(C)C)cc2C(=O)N2CCN(CCN(C)C)C(=O)C2(C)C)cc1-c1cccnc1` [1-(5-tert-butyl-3-(4-(2-(dimethylamino)ethyl)-2,2-dimethyl-3-oxopiperazine-1-carbonyl)thiophen-2-yl)-3-(4-methyl-3-(pyridin-3-yl)phenyl)urea]: below 0.1 µM; for `COc1ccc(-c2cc(NC(=O)Nc3sc(C(C)(C)C)cc3C(=O)N3CCN(CCO)C(=O)C3(C)C)ccc2C)cn1` [1-(5-tert-butyl-3-(4-(2-hydroxyethyl)-2,2-dimethyl-3-oxopiperazine-1-carbonyl)thiophen-2-yl)-3-(3-(6-methoxypyridin-3-yl)-4-methylphenyl)urea]: below 0.1 µM.
As to `CC(=O)N1CCN(C(=O)c2cc(C(C)(C)C)sc2NC(=O)Nc2ccc(C)c(-c3cccnc3)c2)CC1` [1-(5-tert-butyl-3-(4-ethanoylpiperazine-1-carbonyl)thiophen-2-yl)-3-(4-methyl-3-(pyridin-3-yl)phenyl)urea], the half-maximal inhibitory concentration (IC50) is below 0.1 µM.
For the compound `COc1ccc(-c2cc(NC(=O)Nc3sc(C(C)(C)C)cc3C(=O)N3CCC(=O)N(C)CC3)ccc2C)cn1` [1-(5-tert-butyl-3-(4-methyl-5-oxo-1,4-diazepane-1-carbonyl)thiophen-2-yl)-3-(3-(6-methoxypyridin-3-yl)-4-methylphenyl)urea], the IC50 was below 0.1 µM.
For `Cc1ccc(NC(=O)Nc2sc(C(C)(C)C)cc2C(=O)N2CCC(=O)N(C)CC2)cc1-c1ccc(N2CCOCC2)cn1` [1-(5-tert-butyl-3-(4-methyl-5-oxo-1,4-diazepane-1-carbonyl)thiophen-2-yl)-3-(4-methyl-3-(5-morpholinopyridin-2-yl)phenyl)urea] the value was below 0.1 µM; for `Cc1ccc(NC(=O)Nc2sc(C(C)(C)C)cc2C(=O)N2CCNC(=O)CC2)cc1-c1cnc(N2CCOCC2)nc1` [1-(5-tert-butyl-3-(5-oxo-1,4-diazepane-1-carbonyl)thiophen-2-yl)-3-(4-methyl-3-(2-morpholinopyrimidin-5-yl)phenyl)urea], below 0.1 µM.
Turning to `Cc1ccc(NC(=O)Nc2sc(C(C)(C)C)cc2C(=O)N2CCNC(=O)CC2)cc1-c1cccnc1` [1-(5-tert-butyl-3-(5-oxo-1,4-diazepane-1-carbonyl)thiophen-2-yl)-3-(4-methyl-3-(pyridin-3-yl)phenyl)urea], the IC50 was below 0.1 µM.
As to `Cc1ccc(NC(=O)Nc2sc(C(C)(C)C)cc2C(=O)N2CCNC(=O)C2(C)C)cc1-c1cccc[n+]1[O-]` [2-(5-(3-(5-tert-butyl-3-(2,2-dimethyl-3-oxopiperazine-1-carbonyl)thiophen-2-yl)ureido)-2-methylphenyl)pyridine 1-oxide], the half-inhibitory concentration (IC50) is below 0.1 µM.
In the case of `Cc1ccc(NC(=O)Nc2sc(C(C)(C)C)cc2C(=O)N2CCNC(=O)C2(C)C)cc1-c1cc[n+]([O-])cc1` [4-(5-(3-(5-tert-butyl-3-(2,2-dimethyl-3-oxopiperazine-1-carbonyl)thiophen-2-yl)ureido)-2-methylphenyl)pyridine 1-oxide], the IC50 was below 0.1 µM.
Consider `Cc1ccc(NC(=O)Nc2sc(C(C)(C)C)cc2C(=O)N2CCN(C)C(=O)C2(C)C)cc1-c1ccc(C[N+]2([O-])CCOCC2)[n+]([O-])c1` [4-((5-(5-(3-(5-tert-butyl-3-(2,2,4-trimethyl-3-oxopiperazine-1-carbonyl)thiophen-2-yl)ureido)-2-methylphenyl)-1-oxidopyridin-2-yl)methyl)morpholine 4-oxide], for which the IC50 was below 1 µM.
